Measurements taken from patent publication US20160129005A1, “ADENINE DERIVATIVES HAVING IMMUNOMODULATING ANTI-INFLAMMATORY AND ANALGESIC ACTIVITY” (MEDESTEA RESEARCH & PRODUCTION S.p.A., priority 2011, published 2016).

Columns and labels:
U937 cells = test: Secretion of pro-inflammatory cytokines by LPS-stimulated U937 cells (ELISA); assay type: cell-based, human; details: drug with LPS (12 hrs) or added after LPS for 2 or 6 hours, FIG. 1
Protocol: The production in vitro of MCP-1 (monocyte chemoattractant protein-1), TNF-α (tumour necrosis factor alpha), IL-6 (interleukin 6) was analysed. These cytokines induce the production of other cytokines that attract leukocytes to the site of inflammation, potentiating the immune response. This amplifies leukocyte “recruitment” at the site of inflammation, promoting “extravasation” of immune cells from the peripheral circulation.
The U937 cells were plated at a density of 250 000 cells/ml and left in quiescence for 24 hours.
The drug was added in fresh medium, simultaneously or after removal of LPS from the culture. The cells were kept in an incubator at 37° C. with supply of CO2 at 5%.
Analysis of the production of growth factors was performed on the cellular supernatants collected, by ELISA assay using commercial kits (Human TNF-α Quantikine ELISA Kit code DTA00C, R&D Systems assay. Human IL-6 Quantikine ELISA Kit code D6050, R&D Systems assay. Human CCL2/MCP-1 Quantikine ELISA Kit code DCP00, R&D Systems assay).

Tg2576 mice = test: Alzheimer's transgenic murine model Tg2576: behavioural tests and β-amyloid plaques; assay type: in vivo, mouse; details: 4 and 15 mg/kg i.p. daily, 6th to 13th month
Protocol: In the transgenic murine model Tg2576 there is no loss of neurons, but there is neuronal deficit and accumulation of β-amyloid plaques. The production of peptides begins to increase rapidly starting from the 6th month of age, accompanied by a progressive cognitive decline. Around the 7th to 8th month, the first plaques develop, which are then diffuse at the 12th month.
The mice were treated with […] at 4 and at 15 mg/kg i.p. daily starting from the 6th month of age up to the 13th. Between the 9th and 10th month and between the 12th and 13th month the mice were submitted to behavioural tests, at the 13th month they were sacrificed and immunohistochemical analyses were performed on brain samples to verify modulation of the β-amyloid plaques.

Dark Agouti (DA) rats = test: Chronic experimental autoimmune encephalomyelitis (MOG); assay type: in vivo, rat; details: 1 mg/kg per os daily from day of inoculation, to day 50; dose-dependent; FIG. 43
Protocol: We investigated whether treatment with […], at the onset of EAE induced by immunization with MOG (myelin-oligodendrocyte-glycoprotein), stimulates histologic protection and functional recovery.
The motor and sensory deficits were classified according to the previously assigned “neuronal” clinical scores.
Chronic EAE was induced in 60 female adult Dark Agouti (DA) rats of 120-170 g, immunizing the animals with an intradermal injection, at the base of the tail, of […] of recombinant protein MOG1-125 in emulsified PBS in complete Freund adjuvant (CFA) containing hot-inactivated M. tuberculosis.
The rats were divided into 3 groups of 20 animals each and were treated with daily administrations of vehicle or […] 0.1 or 1 mg/kg per os, starting from the day of inoculation.
The neurological scores were measured and evaluated daily for the first thirty days, and thereafter only on weekdays (Monday-Friday) until the end of the study (day 50).
The range of neuroclinical scores begins at 0 (absence of neurologic symptoms) and ends with a score of 5 (complete paralysis of all legs or animal moribund).

Sprague-Dawley (SD) rats = test: Renal ischaemia/reperfusion injury; assay type: in vivo, rat
Text: Ischaemia is an acute pathologic event in which there is reduction in blood supply with resultant injury or dysfunction of the affected tissue. Currently, the obstructed blood vessel is cleared by direct intervention. The resumption of normal circulation after a period of hypoxia causes quite considerable tissue injury, however, with fibrotic results that undermine the functionality of the affected organ. […] We wanted to check whether […] could reduce the injury due to reperfusion and to do so we used a model of renal ischaemia. The model envisages creation of an ischaemic event and then verification of the injury following treatment with […] or with the vehicle.
The experiment was conducted on Sprague-Dawley (SD) rats of 250-300 g divided into three groups. The first group, the […], only underwent an incision, which was kept open for 30 minutes, without ischaemic injury. The other two were pretreated, 30 minutes before undergoing the intervention, with intraperitoneal administration of vehicle (group 2) or of […] (group 3) 10 mg/kg. […]
The kidneys were sectioned for histologic analysis in double-blind conditions. The percentages of the tissue changes observed were counted using a 5-point semiquantitative scale, defined for assessing necrosis and cellular loss: 0=normal kidney; 0.5=<10%; 1=10-25%; 2=25-50%; 3=50-75%; 4=75-100%.

[1] = test system: lymphopenic mice with deletion of cd3ε; test: Chronic intestinal inflammation by transfer of naive CD4 cells; assay type: in vivo, mouse
Text: To study the effect of […] in idiopathic inflammatory diseases of the intestine, such as Crohn's disease and ulcerative colitis, we used lymphopenic mice with deletion of cd3ε. T lymphocytes are not present in these animals, and transfer of naive CD4 cells causes chronic intestinal inflammation. The simultaneous transfer of regulatory T cells (Treg) CD4^+CD25^+ […] the onset of the disease. […] Compared to mice reconstituted with naive CD4 and Treg cells (healthy controls), mice reconstituted with naive CD4 cells and treated with carriers show a severe oedematous-haemorrhagic picture of the colon with splenomegaly and lymphadenomegaly. […] The accumulation of Alcian-positive mucus filaments is visible inside the lumen of the cryptae (arrowheads). In the mice injected with CD4 cells and treated with carriers, muciparous goblet cells have completely disappeared along the cryptae. The cryptae are markedly hyperplasic with intensive cellular crowding, stratification, obliteration of the lumen (arrowheads), and a high frequency of mitotic cells is encountered (arrows). […] The cryptae are moderately hyperplasic and mucus filaments can be seen inside the lumen of the cryptae (arrowheads).

mice = test: Asthma: ovalbumin sensitization and aerosol challenge, BALF; assay type: in vivo, mouse; details: 6 mg/kg intratracheal 30 minutes before OA aerosol; FIG. 38
Protocol: Sensitization of mice with ovalbumin (OA) adsorbed on aluminium hydroxide, administered intraperitoneally on day 0 and day 7, can cause a similar asthmatic manifestation when the mouse is subsequently (days 19-21) challenged with OA aerosol. The mice were anaesthetized 30 minutes before the OA aerosol and the treated group received an intratracheal injection of […] 6 mg/kg.
Twenty-four hours after the last administration of OA, a bronchoalveolar lavage was carried out with 3×1 ml of PBS free from calcium and magnesium ions.

For `C=C(C=O)OC(C=O)n1cnc2c(N)ncnc21` (stereo not drawn) [2-[1-(6-aminopurin-9-yl)-2-oxoethoxy]prop-2-enal], the “cellular secretion of IL-6” value (U937 cells) was “reduces the cellular secretion”, the “cellular secretion of MCP-1” value (U937 cells) was “reduces the cellular secretion” and the “cellular secretion of TNF-α” value (U937 cells) was “reduces the cellular secretion”. For the same compound, the “score obtained in moving to Y (Y-maze test)” value (Tg2576 mice) was “very encouraging”, the “finding and climbing onto the platform, hidden or visible (water maze test)” value (Tg2576 mice; vs vehicle) was “significantly faster than the control” and the neurological scores (Dark Agouti (DA) rats) was “remained lower throughout the period of observation”. The “renal injury (histological damage score and organ functionality)” value (Sprague-Dawley (SD) rats; 10 mg/kg i.p., FIG. 6) was “largely prevents renal injury”, the plasma creatinine levels (Sprague-Dawley (SD) rats; group 3, 10 mg/kg i.p. 30 minutes before ischaemia, 24 hours, group 1 = sham, FIG. 5) was “values much closer to those of group 1” and the “colon sections stained with Alcian-PAS” value ([1]; mice injected with CD4 cells) was “muciparous goblet cells positive to Alcian-PAS are identifiable along the cryptae”. The “macroscopic appearance of colon, spleen and lymph nodes” value ([1]; treatment two weeks after injection of naive CD4 cells, FIG. 31) was “dramatic improvement of the inflammation of the colon”, the “histological scores (0-4, Asseman)” value ([1]; vs carriers, no significant difference to healthy control) was “significant improvement of the lesions” and the “immune cells and mediators of inflammation in BALF” value (mice) was “Significantly lower levels of immune cells and mediators of inflammation”.
